Results on one compound are retold here after US7727736B2, “Soluble phospholipids for use in clotting factor assays” (The University of North Carolina at Chapel Hill, priority 2003, dated 2010).

One test concerns the target T1, factor IXa (Homo sapiens, UniProt P00740).
T1 construct: intrinsic tryptophan fluorescence of factor IXa
As to the kind of experiment: Amidolytic activity of factor IXa with increasing C6PS. In kind it is biochemical. The note with it: 300 nM factor IXa, substrate Leu-PHG-Arg-pNA-AcOH; read-out: Kd from amidolytic activity of factor IXa. Here is the method: The assay was conducted in the presence of 1 mM Leu-PHG-Arg-pNA.AcOH and increasing concentrations of C6PS.

In a further test the target is T2, factor VIIIa-IXa complex (Homo sapiens, UniProt P00451+P00740).
T2 construct: 2.5 nM factor IXa and 10 nM factor VIIIa
As to the kind of experiment: Activation of factor X by factor IXa and factor VIIIa. The class given is biochemical. The conditions noted are these: in the presence of C6PS. How it is done: The rate of activation of factor X by 2.5 nM factor IXa and 10 nM factor VIIIa in the presence of 600 μM C6PS was monitored at different concentrations of factor X (FIG. 13). The KM for this reaction was 66 nM, which is similar to that obtained with 30% PS/PC membranes (45 nM) (Larson et al. (1996) J. Biol. Chem. 271 3869).

T1 sequence (P00740 47-191 limits assumed): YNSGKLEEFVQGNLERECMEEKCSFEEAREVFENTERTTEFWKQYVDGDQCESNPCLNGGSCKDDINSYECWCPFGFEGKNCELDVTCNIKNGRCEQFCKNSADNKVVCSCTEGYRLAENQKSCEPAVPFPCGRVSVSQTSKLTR
T1 sequence (P00740 227-461 limits assumed): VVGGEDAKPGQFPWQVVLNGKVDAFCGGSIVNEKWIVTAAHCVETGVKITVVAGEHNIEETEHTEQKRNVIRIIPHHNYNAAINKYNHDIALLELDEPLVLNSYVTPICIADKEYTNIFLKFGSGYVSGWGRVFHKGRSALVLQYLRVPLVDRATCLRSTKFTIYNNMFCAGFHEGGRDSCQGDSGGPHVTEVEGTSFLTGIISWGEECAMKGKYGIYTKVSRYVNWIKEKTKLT
T2 sequence (P00740 47-191 limits assumed): as the sequence (P00740 47-191 limits assumed) above
T2 sequence (P00740 227-461 limits assumed): as the sequence (P00740 227-461 limits assumed) above
T2 sequence (P00451 20-391 limits assumed): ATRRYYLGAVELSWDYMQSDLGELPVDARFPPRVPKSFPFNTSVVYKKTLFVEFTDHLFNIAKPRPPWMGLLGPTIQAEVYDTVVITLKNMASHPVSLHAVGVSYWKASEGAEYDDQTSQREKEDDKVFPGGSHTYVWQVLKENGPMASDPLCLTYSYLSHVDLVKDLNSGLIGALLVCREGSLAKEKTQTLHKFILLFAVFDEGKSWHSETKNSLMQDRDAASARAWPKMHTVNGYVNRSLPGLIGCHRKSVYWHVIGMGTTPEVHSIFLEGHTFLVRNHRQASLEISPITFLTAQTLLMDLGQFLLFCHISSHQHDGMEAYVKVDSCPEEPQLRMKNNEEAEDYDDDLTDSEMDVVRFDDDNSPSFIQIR
T2 sequence (P00451 392-759 limits assumed): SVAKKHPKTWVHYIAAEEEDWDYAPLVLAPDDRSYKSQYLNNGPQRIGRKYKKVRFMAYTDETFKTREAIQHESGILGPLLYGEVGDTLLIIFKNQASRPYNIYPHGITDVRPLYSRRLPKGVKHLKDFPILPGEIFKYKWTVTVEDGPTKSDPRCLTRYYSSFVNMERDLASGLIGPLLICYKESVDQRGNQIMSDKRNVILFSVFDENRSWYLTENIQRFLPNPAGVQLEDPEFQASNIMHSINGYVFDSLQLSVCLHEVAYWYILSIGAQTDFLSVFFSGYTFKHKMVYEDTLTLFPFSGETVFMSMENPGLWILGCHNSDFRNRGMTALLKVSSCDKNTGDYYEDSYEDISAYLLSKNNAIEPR
T2 sequence (P00451 1709-2351 limits assumed): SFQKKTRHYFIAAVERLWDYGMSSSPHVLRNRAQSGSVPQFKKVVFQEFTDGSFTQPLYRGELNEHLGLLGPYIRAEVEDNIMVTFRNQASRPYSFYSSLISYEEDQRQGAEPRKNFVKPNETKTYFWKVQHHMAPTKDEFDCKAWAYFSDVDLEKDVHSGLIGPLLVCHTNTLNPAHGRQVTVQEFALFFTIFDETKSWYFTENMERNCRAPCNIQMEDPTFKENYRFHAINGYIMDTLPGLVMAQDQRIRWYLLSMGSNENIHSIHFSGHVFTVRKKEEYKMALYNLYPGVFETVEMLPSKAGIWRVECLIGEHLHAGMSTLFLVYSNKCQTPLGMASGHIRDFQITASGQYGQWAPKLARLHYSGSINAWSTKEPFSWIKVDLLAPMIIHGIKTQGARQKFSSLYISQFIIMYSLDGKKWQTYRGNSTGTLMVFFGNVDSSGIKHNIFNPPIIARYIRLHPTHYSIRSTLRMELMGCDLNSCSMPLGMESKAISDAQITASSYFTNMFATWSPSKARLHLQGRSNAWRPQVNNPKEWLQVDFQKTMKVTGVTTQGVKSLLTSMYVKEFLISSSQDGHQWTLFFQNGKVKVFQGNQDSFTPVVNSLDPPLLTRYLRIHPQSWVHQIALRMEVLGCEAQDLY

One may read the Kd as the equilibrium constant for the complex coming apart. Regarding `CCCCCC(=O)OC[C@H](COP(=O)(O)OC[C@H](N)C(=O)O)OC(=O)CCCCC` [C6PS, 1,2-dicaproyl-sn-glycero-3-phospho-L-serine], at factor IXa, the Kd worked out at 130 µM. The “fold reduction of KM for factor X activation with the addition of VIIIa” value at factor VIIIa-IXa complex was 5 fold.
